Data taken from PubChem BioAssay AID1918994 (Molecular Pharmacology Branch, DTP, NCI, 2023).

Tested on: 292921-168-R-J2-PDC complex spheroid growth
Test: Anticancer human tumor 292921-168-R-J2-PDC patient-derived pancreatic carcinoma cell line growth inhibition [AhR]
Settings: for IC50: curve of first compound; for viability, T/C: stronger effect = lower value
Summary of the method: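 Agents were dosed in half-log steps down from roughly clinical Cmax, or from 10 microM where Cmax was unknown, alone and with AhR antagonists. Read-out: percent test/control growth of tumor spheroids containing HUVEC and MSC stromal cells.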

[1] = second compound 0.1 µM, first compound 0.0316 µM
[2] = second compound 0.1 µM, first compound 0.1 µM
[3] = second compound 0.1 µM, first compound 0.316 µM
[4] = second compound 0.1 µM, first compound 1 µM
[5] = second compound 0.1 µM, first compound 3.16 µM
[6] = second compound 0.1 µM, first compound 10 µM
[7] = second compound 0.316 µM, first compound 0.0316 µM
[8] = second compound 0.316 µM, first compound 0.1 µM
[9] = second compound 0.316 µM, first compound 0.316 µM
[10] = second compound 0.316 µM, first compound 1 µM
[11] = second compound 0.316 µM, first compound 3.16 µM
[12] = second compound 0.316 µM, first compound 10 µM
[13] = second compound 1 µM, first compound 0.0316 µM
[14] = second compound 1 µM, first compound 0.1 µM
[15] = second compound 1 µM, first compound 0.316 µM
[16] = second compound 1 µM, first compound 1 µM
[17] = second compound 1 µM, first compound 3.16 µM
[18] = second compound 1 µM, first compound 10 µM
[19] = second compound 3.16 µM, first compound 0.0316 µM
[20] = second compound 3.16 µM, first compound 0.1 µM
[21] = second compound 3.16 µM, first compound 0.316 µM
[22] = second compound 3.16 µM, first compound 1 µM
[23] = second compound 3.16 µM, first compound 3.16 µM
[24] = second compound 3.16 µM, first compound 10 µM
[25] = second compound 10 µM, first compound 0.0316 µM
[26] = second compound 10 µM, first compound 0.1 µM
[27] = second compound 10 µM, first compound 0.316 µM
[28] = second compound 10 µM, first compound 1 µM
[29] = second compound 10 µM, first compound 3.16 µM
[30] = second compound 10 µM, first compound 10 µM
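Note: spheroids exposed to compounds for seven days after three days of growth.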

For `Nc1ccccc1NC(=O)c1ccc(CNC(=O)OCc2cccnc2)cc1` + Cc1ccccc1N=Nc1ccc(NC(=O)c2ccnn2C)c(C)c1, the IC50 (second compound 0.1 µM) was 539 nM, the IC50 (second compound 0.316 µM) was 612 nM and the IC50 (second compound 1 µM) was 277 nM. For the same molecule, the IC50 (second compound 3.16 µM) was 229 nM, the IC50 (second compound 10 µM) was under 31.6 nM and the viability, T/C [1] was 66.5%. The viability, T/C [2] was 65.1%, the viability, T/C [3] was 57% and the viability, T/C [4] was 40.9%. For the same molecule, the viability, T/C [5] was 27.3%, the viability, T/C [6] was 12% and the viability, T/C [7] was 66.8%. The viability, T/C [8] was 65.8%, the viability, T/C [9] was 58.9% and the viability, T/C [10] was 42.8%. The viability, T/C [11] was 26.1%, the viability, T/C [12] was 12.8% and the viability, T/C [13] was 63.9%. It also gave a viability, T/C [14] of 54.5%, a viability, T/C [15] of 52.6% and a viability, T/C [16] of 35.9%. The viability, T/C [17] was 26.5%, the viability, T/C [18] was 12.3% and the viability, T/C [19] was 54%. The viability, T/C [20] was 55%, the viability, T/C [21] was 50.7% and the viability, T/C [22] was 33.4%. For the same molecule, the viability, T/C [23] was 23.7%, the viability, T/C [24] was 10.3% and the viability, T/C [25] was 48.9%. It also gave a viability, T/C [26] of 42.7%, a viability, T/C [27] of 34.7% and a viability, T/C [28] of 32.3%. The viability, T/C [29] was 17.7% and the viability, T/C [30] was 8.67%.
Work on `O=C(C=Cc1cccc(S(=O)(=O)Nc2ccccc2)c1)NO` + Cc1ccccc1N=Nc1ccc(NC(=O)c2ccnn2C)c(C)c1 yielded an IC50 (second compound 0.1 µM) of 579 nM, an IC50 (second compound 0.316 µM) of 697 nM and an IC50 (second compound 1 µM) of 520 nM. The IC50 (second compound 3.16 µM) was 285 nM, the IC50 (second compound 10 µM) was under 31.6 nM and the viability, T/C [1] was 69%. For the same molecule, the viability, T/C [2] was 64%, the viability, T/C [3] was 52% and the viability, T/C [4] was 39.7%. For the same molecule, the viability, T/C [5] was 38.2%, the viability, T/C [6] was 3.35% and the viability, T/C [7] was 74.9%. It also gave a viability, T/C [8] of 68.2%, a viability, T/C [9] of 55.4% and a viability, T/C [10] of 43.2%. For the same molecule, the viability, T/C [11] was 36.9%, the viability, T/C [12] was 6.05% and the viability, T/C [13] was 68.8%. The viability, T/C [14] was 59.1%, the viability, T/C [15] was 54.8% and the viability, T/C [16] was 38.8%. It also gave a viability, T/C [17] of 36.1%, a viability, T/C [18] of 3.74% and a viability, T/C [19] of 65.8%. The viability, T/C [20] was 49%, the viability, T/C [21] was 49.1% and the viability, T/C [22] was 34.9%. It also gave a viability, T/C [23] of 35.2%, a viability, T/C [24] of 2.03% and a viability, T/C [25] of 44.2%. It also gave a viability, T/C [26] of 41.6%, a viability, T/C [27] of 36.9% and a viability, T/C [28] of 33.8%. For the same molecule, the viability, T/C [29] was 29.1% and the viability, T/C [30] was 4.17%.
In the case of `O=C(c1cc(Cc2n[nH]c(=O)c3ccccc23)ccc1F)N1CCN(C(=O)C2CC2)CC1` + Cc1ccccc1N=Nc1ccc(NC(=O)c2ccnn2C)c(C)c1, the IC50 (second compound 0.1 µM) is reported as over 10000 nM, the IC50 (second compound 0.316 µM) is reported as over 10000 nM and the IC50 (second compound 1 µM) is reported as over 10000 nM. It also gave an IC50 (second compound 3.16 µM) of over 10000 nM, an IC50 (second compound 10 µM) of 4550 nM and a viability, T/C [1] of 80%. It also gave a viability, T/C [2] of 84.9%, a viability, T/C [3] of 92.9% and a viability, T/C [4] of 95.8%. It also gave a viability, T/C [5] of 89.6%, a viability, T/C [6] of 75.5% and a viability, T/C [7] of 79.4%. For the same molecule, the viability, T/C [8] was 90%, the viability, T/C [9] was 86.8% and the viability, T/C [10] was 85.8%. The viability, T/C [11] was 84.5%, the viability, T/C [12] was 65.7% and the viability, T/C [13] was 77.8%. The viability, T/C [14] was 67.8%, the viability, T/C [15] was 79.2% and the viability, T/C [16] was 73.5%. The viability, T/C [17] was 82.8%, the viability, T/C [18] was 67.4% and the viability, T/C [19] was 69.2%. The viability, T/C [20] was 64.4%, the viability, T/C [21] was 72.5% and the viability, T/C [22] was 67.4%. It also gave a viability, T/C [23] of 63.6%, a viability, T/C [24] of 58.9% and a viability, T/C [25] of 50.6%. For the same molecule, the viability, T/C [26] was 59.5%, the viability, T/C [27] was 54.6% and the viability, T/C [28] was 62.6%. For the same molecule, the viability, T/C [29] was 49.7% and the viability, T/C [30] was 43.8%.
